Assay results from article PMC5947742 (The Journal of Dermatology, 2018).

How the values were obtained:
[1] = Plasma pharmacokinetics of dabrafenib, its metabolites and trametinib; assay type: in vivo, Japanese patients; details: for plasma AUC at repeat dosing (day 21) compared with single dose (day 1): AUC0-12 h for dabrafenib, AUC0-24 h for trametinib; for time by which plasma (trough) concentrations seemed to reach steady state: repeat dosing of 150 mg dabrafenib b.i.d. and 2 mg trametinib q.d.
Safety and tolerability = assay type: in vivo, Japanese patients

Row | time by which plasma (trough) concentrations seemed to reach steady state [1] [week] | SMILES | plasma AUC at repeat dosing (day 21) compared with single dose (day 1) [1] | adverse event leading to discontinuation (Safety and tolerability; patient 1, phase 1) | adverse event leading to discontinuation (Safety and tolerability; patient 11, phase 2) | half-life relative to the dose interval (24 h) ([1]; trametinib 2 mg q.d.)
1 | ≤ 3 | CC(C)c1nc(-c2cccc(NS(=O)(=O)c3c(F)cccc3F)c2F)c(-c2ccnc(N)n2)s1 [GSK2167542] | – | – | – | –
2 | ≤ 3 | CC(C)(CO)c1nc(-c2cccc(NS(=O)(=O)c3c(F)cccc3F)c2F)c(-c2ccnc(N)n2)s1 [GSK2285403] | – | – | – | –
3 | ≤ 3 | CC(C)(C(=O)O)c1nc(-c2cccc(NS(=O)(=O)c3c(F)cccc3F)c2F)c(-c2ccnc(N)n2)s1 [GSK2298683] | – | – | – | –

Row | SMILES | time by which plasma (trough) concentrations seemed to reach steady state [1] [week] | plasma AUC at repeat dosing (day 21) compared with single dose (day 1) [1] | adverse event leading to discontinuation (Safety and tolerability; patient 1, phase 1) | adverse event leading to discontinuation (Safety and tolerability; patient 11, phase 2) | half-life relative to the dose interval (24 h) ([1]; trametinib 2 mg q.d.)
4 | CC(C)(C)c1nc(-c2cccc(NS(=O)(=O)c3c(F)cccc3F)c2F)c(-c2ccnc(N)n2)s1 [Dabrafenib, dabrafenib] | ≤ 3 | lower | grade 3 increased blood alkaline phosphatase | grade 3 uveitis | –
5 | CC(=O)Nc1cccc(-n2c(=O)n(C3CC3)c(=O)c3c(Nc4ccc(I)cc4F)n(C)c(=O)c(C)c32)c1 [Trametinib, trametinib] | ≤ 3 | higher | – | grade 3 uveitis | approximately 3.5 times the dose interval
